Experimental data published in patent publication US9833497B2, “Human originated EGF domain proteins and use of the same” (CHENGDU SOURCEBIO LIMITED-LIABILITY COMPANY, priority 2013, dated 2017).

What was measured:
Type in all cases: cell-based
Aeromonas hydrophila = experiment: MIC against Gram-negative bacteria: Aeromonas hydrophila; settings: for MIC (μg/mL) A. hydrophila / MIC against A. hydrophila: 5×10^5 CFU/mL
Procedure, shortened: (§1)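 Inocula prepared by growing LB cultures at 37° C to 0.5 McFarland, centrifuging at 4000×g, and resuspending in fresh medium. Final density 5×10^5 CFU/mL per well with two-fold dilutions of purified EGF domain protein; shaking incubation at 37° C.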

Enterobacter cloacae = experiment: MIC against Gram-negative bacteria: Enterobacter cloacae; settings: for MIC (μg/mL) E. cloacae / MIC against E. cloacae: 5×10^5 CFU/mL
Procedure, shortened: as §1

Pseudomonas aeruginosa = experiment: MIC against Gram-negative bacteria: Pseudomonas aeruginosa; settings: for MIC (μg/mL) P. aeruginosa / MIC against P. aeruginosa: 5×10^5 CFU/mL
Procedure, shortened: as §1

E. coli BL21 = experiment: MIC against Gram-negative bacteria: E. coli BL21; settings: for MIC (μg/mL) E. coli BL21 / MIC against E. coli BL21: 5×10^5 CFU/mL
Procedure, shortened: as §1

E. coli DH5α = experiment: Antibacterial activity: MIC and growth curve against E. coli DH5α in 96-well plate; settings: minimal inhibitory concentration against E. coli DH5α; 96-well plate, 5×10^5 CFU/mL, 37° C., judged after 8 h
Procedure, shortened: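 MIC taken as lowest protein level with no bacterial growth, tracked by A600 every 30 min during 37 °C, 175 rpm culture. Two-fold protein series 50-12.5 μg/mL final, triplicate wells, against 5×10^5 CFU/mL of LB-washed mid-log cells.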

Serratia marcescens = experiment: MIC against Gram-negative bacteria: Serratia marcescens; settings: for MIC (μg/mL) S. marcescens / MIC against S. marcescens: 5×10^5 CFU/mL
Procedure, shortened: as §1

Citrobacter diversus = experiment: MIC against Gram-negative bacteria: Citrobacter diversus; settings: for MIC (μg/mL) C. diversus / MIC against C. diversus: 5×10^5 CFU/mL
Procedure, shortened: as §1

Moraxella catarrhalis = experiment: MIC against Gram-negative bacteria: Moraxella catarrhalis; settings: for MIC (μg/mL) M. catarrhalis / MIC against M. catarrhalis: 5×10^5 CFU/mL
Procedure, shortened: as §1

Proteus mirabilis = experiment: MIC against Gram-negative bacteria: Proteus mirabilis; settings: for MIC (μg/mL) P. mirabilis / MIC against P. mirabilis: 5×10^5 CFU/mL
Procedure, shortened: as §1

Klebsiella pneumonia = experiment: MIC against Gram-negative bacteria: Klebsiella pneumonia; settings: for MIC (μg/mL) K. pneumonia / MIC against K. pneumonia: 5×10^5 CFU/mL
Procedure, shortened: as §1

Proteus vulgaris = experiment: MIC against Gram-negative bacteria: Proteus vulgaris; settings: for MIC (μg/mL) P. vulgaris / MIC against P. vulgaris: 5×10^5 CFU/mL
Procedure, shortened: as §1

[1] = A. hydrophila, 10 h cultivation at 37° C.
[2] = E. cloacae, 10 h cultivation at 37° C.
[3] = P. aeruginosa, 10 h cultivation at 37° C.
[4] = E. coli BL21, 10 h cultivation at 37° C.
[5] = S. marcescens, 10 h cultivation at 37° C.
[6] = C. diversus, 10 h cultivation at 37° C.
[7] = M. catarrhalis, 10 h cultivation at 37° C.
[8] = P. mirabilis, 10 h cultivation at 37° C.
[9] = K. pneumonia, 10 h cultivation at 37° C.
[10] = P. vulgaris, 10 h cultivation at 37° C.
[11] = Aeromonas hydrophila, 96-well plate, 37° C., 10 h
[12] = Enterobacter cloacae, 96-well plate, 37° C., 10 h
[13] = Pseudomonas aeruginosa, 96-well plate, 37° C., 10 h
[14] = E. coli BL21, 96-well plate, 37° C., 10 h
[15] = Serratia marcescens, 96-well plate, 37° C., 10 h
[16] = Citrobacter diversus, 96-well plate, 37° C., 10 h
[17] = Moraxella catarrhalis, 96-well plate, 37° C., 10 h
[18] = Proteus mirabilis, 96-well plate, 37° C., 10 h
[19] = Klebsiella pneumonia, 96-well plate, 37° C., 10 h
[20] = Proteus vulgaris, 96-well plate, 37° C., 10 h

With “PRT261 (CAHGHGGCSPHANCTKVAPGQRTCTCQDGYMGDGELC; listed as Homo sapiens)” the “MIC (μg/mL) A. hydrophila” value (Aeromonas hydrophila; [1]) was 12.5 µg/mL, the “MIC (μg/mL) E. cloacae” value (Enterobacter cloacae; [2]) was 50 µg/mL and the “MIC (μg/mL) P. aeruginosa” value (Pseudomonas aeruginosa; [3]) was 12.5 µg/mL. For the same substance, the “MIC (μg/mL) E. coli BL21” value (E. coli BL21; [4]) was 12.5 µg/mL, the MIC (E. coli DH5α) was 12.5 µg/mL and the “MIC (μg/mL) S. marcescens” value (Serratia marcescens; [5]) was 50 µg/mL. For the same substance, the “MIC (μg/mL) C. diversus” value (Citrobacter diversus; [6]) was 25 µg/mL, the “MIC (μg/mL) M. catarrhalis” value (Moraxella catarrhalis; [7]) was 50 µg/mL and the “MIC (μg/mL) P. mirabilis” value (Proteus mirabilis; [8]) was 25 µg/mL. The “MIC (μg/mL) K. pneumonia” value (Klebsiella pneumonia; [9]) was 12.5 µg/mL and the “MIC (μg/mL) P. vulgaris” value (Proteus vulgaris; [10]) was 12.5 µg/mL.

For “PRT989 (NIDDCATAVCFHGATCHDRVASFYCACPMGKTGLLCH; listed as Homo sapiens)”, the MIC (Aeromonas hydrophila; [1]) was 12.5 µg/mL, the MIC (Enterobacter cloacae; [2]) was 12.5 µg/mL and the MIC (Pseudomonas aeruginosa; [3]) was 50 µg/mL. The MIC (E. coli BL21; [4]) was 12.5 µg/mL, the MIC (E. coli DH5α) was 50 µg/mL and the MIC (Serratia marcescens; [5]) was 25 µg/mL. It also gave an MIC (Citrobacter diversus; [6]) of 100 µg/mL, an MIC (Moraxella catarrhalis; [7]) of 100 µg/mL and an MIC (Proteus mirabilis; [8]) of 12.5 µg/mL. It also gave an MIC (Klebsiella pneumonia; [9]) of 12.5 µg/mL and an MIC (Proteus vulgaris; [10]) of 12.5 µg/mL.

With “PRT552 (CACGPAAEGSECHPQSGQCHCRPGTMGPQCRECAPGYWGLPEQGCRR; listed as Homo sapiens)” the “MIC against A. hydrophila” value (Aeromonas hydrophila; 96-well plate, 37° C., 10 h) was 12.5 µg/mL, the “MIC against E. cloacae” value (Enterobacter cloacae; 96-well plate, 37° C., 10 h) was 50 µg/mL and the “MIC against P. aeruginosa” value (Pseudomonas aeruginosa; 96-well plate, 37° C., 10 h) was 50 µg/mL. For the same substance, the “MIC against E. coli BL21” value (E. coli BL21; 96-well plate, 37° C., 10 h) was 100 µg/mL, the MIC (E. coli DH5α) was 25 µg/mL and the “MIC against S. marcescens” value (Serratia marcescens; 96-well plate, 37° C., 10 h) was 12.5 µg/mL. For the same substance, the “MIC against C. diversus” value (Citrobacter diversus; 96-well plate, 37° C., 10 h) was 50 µg/mL, the “MIC against M. catarrhalis” value (Moraxella catarrhalis; 96-well plate, 37° C., 10 h) was 25 µg/mL and the “MIC against P. mirabilis” value (Proteus mirabilis; 96-well plate, 37° C., 10 h) was 12.5 µg/mL. The “MIC against K. pneumonia” value (Klebsiella pneumonia; 96-well plate, 37° C., 10 h) was 12.5 µg/mL and the “MIC against P. vulgaris” value (Proteus vulgaris; 96-well plate, 37° C., 10 h) was 25 µg/mL.

“PRT69 (RRNFCDGRRCQNGGTCVNRWNMYLCECPLRFGGKNCE; listed as Homo sapiens)” was tested, and the “MIC (μg/mL) A. hydrophila” value (Aeromonas hydrophila; [11]) was 12.5 µg/mL, the “MIC (μg/mL) E. cloacae” value (Enterobacter cloacae; [12]) was 25 µg/mL and the “MIC (μg/mL) P. aeruginosa” value (Pseudomonas aeruginosa; [13]) was 25 µg/mL. For the same substance, the “MIC (μg/mL) E. coli BL21” value (E. coli BL21; [14]) was 12.5 µg/mL, the MIC (E. coli DH5α) was 12.5 µg/mL and the “MIC (μg/mL) S. marcescens” value (Serratia marcescens; [15]) was 12.5 µg/mL. For the same substance, the “MIC (μg/mL) C. diversus” value (Citrobacter diversus; [16]) was 25 µg/mL, the “MIC (μg/mL) M. catarrhalis” value (Moraxella catarrhalis; [17]) was 12.5 µg/mL and the “MIC (μg/mL) P. mirabilis” value (Proteus mirabilis; [18]) was 12.5 µg/mL. The “MIC (μg/mL) K. pneumonia” value (Klebsiella pneumonia; [19]) was 12.5 µg/mL and the “MIC (μg/mL) P. vulgaris” value (Proteus vulgaris; [20]) was 12.5 µg/mL.

For “PRT119 (CAPCPNNGRPTLSGTECLCVCQSGTYGENCE; listed as Homo sapiens)”, the “MIC (μg/mL) A. hydrophila” value (Aeromonas hydrophila; [11]) was 12.5 µg/mL, the “MIC (μg/mL) E. cloacae” value (Enterobacter cloacae; [12]) was 25 µg/mL and the “MIC (μg/mL) P. aeruginosa” value (Pseudomonas aeruginosa; [13]) was 12.5 µg/mL. The “MIC (μg/mL) E. coli BL21” value (E. coli BL21; [14]) was 50 µg/mL, the MIC (E. coli DH5α) was 12.5 µg/mL and the “MIC (μg/mL) S. marcescens” value (Serratia marcescens; [15]) was 12.5 µg/mL. For the same substance, the “MIC (μg/mL) C. diversus” value (Citrobacter diversus; [16]) was 25 µg/mL, the “MIC (μg/mL) M. catarrhalis” value (Moraxella catarrhalis; [17]) was 50 µg/mL and the “MIC (μg/mL) P. mirabilis” value (Proteus mirabilis; [18]) was 25 µg/mL. For the same substance, the “MIC (μg/mL) K. pneumonia” value (Klebsiella pneumonia; [19]) was 50 µg/mL and the “MIC (μg/mL) P. vulgaris” value (Proteus vulgaris; [20]) was 12.5 µg/mL.

In the case of “PRT1237 (LGPGCLDNCRGHGDCLREQCICDPGYSGPNCY; listed as Homo sapiens)”, the “MIC against A. hydrophila” value (Aeromonas hydrophila; [11]) is reported as 12.5 µg/mL, the “MIC against E. cloacae” value (Enterobacter cloacae; [12]) is reported as 12.5 µg/mL and the “MIC against P. aeruginosa” value (Pseudomonas aeruginosa; [13]) is reported as 25 µg/mL. For the same substance, the “MIC against E. coli BL21” value (E. coli BL21; [14]) was 12.5 µg/mL, the MIC (E. coli DH5α) was 12.5 µg/mL and the “MIC against S. marcescens” value (Serratia marcescens; [15]) was 50 µg/mL. For the same substance, the “MIC against C. diversus” value (Citrobacter diversus; [16]) was 25 µg/mL, the “MIC against M. catarrhalis” value (Moraxella catarrhalis; [17]) was 50 µg/mL and the “MIC against P. mirabilis” value (Proteus mirabilis; [18]) was 25 µg/mL. The “MIC against K. pneumonia” value (Klebsiella pneumonia; [19]) was 12.5 µg/mL and the “MIC against P. vulgaris” value (Proteus vulgaris; [20]) was 12.5 µg/mL.
